Patent publication US8017584B2, “GD3-mimetic peptides” (Otsuka Pharmaceutical Co., Ltd., priority 2000, dated 2011)
Values joined by “and” are separate entries in the source; they are usually repeats but may differ in a detail not shown here. Identical values can stand only once.

Key:
[1] = tested on: Anti-GD2 antibody; assay: ELISA of immobilized MAP-form peptides with control anti-GD2 antibody; assay type: binding; conditions: MAP form 100 ng/well
Method: A 0.1M NaHCO3 solution containing a GD3-mimetic peptide of the invention in the above MAP form (100 ng/100 μL) was added to the wells of a 96-well micro-titer plate, for immobilization at room temperature for one hour. Subsequently, in a manner similar to the ELISA method employed in Example 2, binding affinity of the GD3-mimetic peptide to GD3 antibody 4F6 was investigated.
Anti-GD2 antibody and anti-OAcGD3 antibody (Cerato, E., et al., Hybridoma, 16(4), 307-316 (1997)) were used as controls (these antibodies were kindly provided by from Dr. Portoukalian).

[2] = Titer against GD3 (ELISA) of antiserum from mice immunized with MAP peptides (Example 4); assay type: in vivo, mice (C57BL/6); conditions: individual mice
Method: Four species of GD3-mimetic peptide (MAP) obtained in Example 3 (2) was dissolved in PBS so as to attain a concentration of 200 μg/mL. The solution was added to Freund's complete (or incomplete) adjuvant (1:1, by volume), to thereby prepare an emulsion.
Eight mice (C57BL/6) were immunized by subcutaneous administration of the above emulsion (0.2 mL/mouse, in one administration, […]). Administration was performed every two weeks (for the second and subsequent administrations, Freund's incomplete adjuvant was used). After one week following respective administrations, blood was collected from the tail of each mouse, to thereby yield antiserum.
The antiserum obtained directly after the first administration will be referred to “1-st,” that obtained after the second administration will be referred to “2-nd,” and that obtained after the third administration will be referred to “3-rd.”
The titer, against GD3, of each of the antiserum samples (3×8 mice=24 samples) obtained in the (1) above was measured through ELISA as described below.
The thus-obtained purified GD3 was dissolved in methanol, whereby a GD3 solution having a concentration of 10 μg/mL was prepared. The GD3 solution was added to the wells of a 96-well micro-titer plate in amounts of 10 μL per well (which corresponds to 100 ng GD3 per well), and methanol was evaporated. Subsequently, a blocking solution (TBS supplemented with 1% BSA) was added to the wells in amounts of 50 μL per well, for blocking at 37° C. for 4 hours.
The supernatant was discarded. Each of the antiserum samples obtained in (1) above was diluted 100-fold, 400-fold, or 1,600 fold with the above-mentioned blocking solution. The diluted antiserum (50 μL) was added to each well for reaction at 4° C. overnight. The well was washed six times with TBS, and thereafter, HRP-labeled […] diluted 5,000-fold with the blocking solution was added (50 μL per well) for reaction for 2 hours at room temperature. The well was washed four times with TBS, and thereafter, enzymatic activity (peroxidase) of the well was detected with TMB solution (50 μL). The reaction was stopped with 1N HCl (50 μL), and the value corresponding to “420 nm-620 nm” was calculated.
A control sample was prepared as follows. […] The synthesized peptide was administered to a mouse for immunization, and the obtained antiserum served as a control sample. The titer of the control sample was obtained in a manner similar to that described above. (However, the number of provided mice was five, and only a 100-fold diluted solution was used.) This control peptide sample was also used in the form of MAP as described above.

[3] = tested on: T-cell-rich lymphocytes / IL-2-dependent CTLL2 cells; assay: Cell response test: IL-2 activity (3H thymidine up-take of CTLL2 cells) in supernatant of spleen cells of mice immunized with GD3; assay type: cell-based, mouse; conditions: mice immunized with GD3
Method: Similar to the case of immunization with R4-KLH, antiserum samples were also prepared through immunization with GD3 (30 μg).
The spleen aseptically removed from each of the above-immunized mice was minced in a 10% FCS-supplemented RPMI 1640 medium. By use of a nylon wool column, T-cell-rich lymphocytes were prepared and the cells were counted. The above medium containing the cells in an amount of 10^5 cells per 150 μL was added to each of the wells of a culture plate. PHA was added so as to attain a final concentration of 1 μg/mL. A peptide of the present invention or any of different gangliosides in PBS was added, and the mixture was incubated for 96 hours. A supernatant (100 μL) was obtained from each well. The IL-2 activity of the supernatant was determined through use of IL-2-dependent mouse cells, CTLL2. Briefly, the supernatant (100 μL) diluted 2 to 50-fold with a medium was added to the wells in an amount of 10^4 CTLL2 cells/well, followed by incubation at 37° C. for 48 hours. Subsequently, 3H-thymidine (0.5 μCi) was added to each well, followed by incubation for 6 hours. CTLL2 cells were recovered on a paper filter and counted for 3H.

[4] = antiserum 1st (after first administration), dilution factor 1/100, MAP 5 μg/mouse s.c.
[5] = antiserum 1st, dilution factor 1/400
[6] = antiserum 1st, dilution factor 1/1600
[7] = antiserum 2nd (after second administration), dilution factor 1/100
[8] = antiserum 2nd, dilution factor 1/400
[9] = antiserum 2nd, dilution factor 1/1600
[10] = antiserum 3rd (after third administration), dilution factor 1/100
[11] = antiserum 3rd, dilution factor 1/400
[12] = antiserum 3rd, dilution factor 1/1600
[13] = stimulant 1 μg/ml, supernatant dilution 1/20
[14] = stimulant 1 μg/ml, supernatant dilution 1/50
[15] = stimulant 1 μg/ml, supernatant dilution ½
[16] = stimulant 1 μg/ml, supernatant dilution ⅕
[17] = stimulant 2 μg/ml, supernatant dilution 1/20
[18] = stimulant 2 μg/ml, supernatant dilution 1/50
[19] = stimulant 2 μg/ml, supernatant dilution ½
[20] = stimulant 2 μg/ml, supernatant dilution ⅕
[21] = stimulant 5 μg/ml, supernatant dilution 1/20
[22] = stimulant 5 μg/ml, supernatant dilution 1/50
[23] = stimulant 5 μg/ml, supernatant dilution ½
[24] = stimulant 5 μg/ml, supernatant dilution ⅕

| Sequence | ELISA absorbance, Anti-GD2 antibody ([1]; Serum % 12.50%) | ELISA absorbance, Anti-GD2 antibody ([1]; Serum % 25%) | ELISA absorbance, Anti-GD2 antibody ([1]; Serum % 50%) | ELISA absorbance, Anti-GD2 antibody ([1]; Serum % 100%) | reactivity of antiserum with GD3 (ELISA absorbance) [2, 4] | reactivity of antiserum with GD3 (ELISA absorbance) [2, 5] | reactivity of antiserum with GD3 (ELISA absorbance) [2, 6] | reactivity of antiserum with GD3 (ELISA absorbance) [2, 7] | reactivity of antiserum with GD3 (ELISA absorbance) [2, 8] | reactivity of antiserum with GD3 (ELISA absorbance) [2, 9] | reactivity of antiserum with GD3 (ELISA absorbance) [2, 10] | reactivity of antiserum with GD3 (ELISA absorbance) [2, 11] | reactivity of antiserum with GD3 (ELISA absorbance) [2, 12] | 3H Thymidine up-take into CTLL2 cells, mean ± SE (4 wells) [3, 13] | 3H Thymidine up-take into CTLL2 cells, mean ± SE (4 wells) [3, 14] | 3H Thymidine up-take into CTLL2 cells, mean ± SE (4 wells) [3, 15] | 3H Thymidine up-take into CTLL2 cells, mean ± SE (4 wells) [3, 16] | 3H Thymidine up-take into CTLL2 cells, mean ± SE (4 wells) [3, 17] | 3H Thymidine up-take into CTLL2 cells, mean ± SE (4 wells) [3, 18] | 3H Thymidine up-take into CTLL2 cells, mean ± SE (4 wells) [3, 19] | also measured |
| --- | --- | --- | --- | --- | --- | --- | --- | --- | --- | --- | --- | --- | --- | --- | --- | --- | --- | --- | --- | --- | --- |
| LAPPRPRSELVFLSV (LAPPRPRSQLVFLSV) [GD3R1, tested as phage clone, MAP form or peptide] | 0.065 | 0.067 | 0.095 | 0.123 | 0.047 and 0.106 and 0.03 and 0.055 and 0.059 and 0.061 and 0.034 and 0.052 | 0.026 and 0.057 and 0.024 and 0.052 and 0.034 and 0.027 and 0.017 and 0.039 | 0 (3×) and 0.005 and 0.008 and 0.016 and 0.004 and 0.007 | 0.087 and 0.14 and 0.188 and 0.102 and 0.117 and 0.168 and 0.054 and 0.082 | 0.027 and 0.063 and 0.088 and 0.074 and 0.047 and 0.06 and 0.039 and 0.026 | 0.016 and 0.022 and 0.034 and 0.019 (2×) and 0.014 and 0.024 and 0.01 | 0.068 and 0.066 and 0.084 (2×) and 0.139 and 0.121 and 0.08 and 0.023 | 0.019 and 0.017 and 0.03 (2×) and 0.054 and 0.021 and 0.051 and 0.01 | 0 (2×) and 0.002 and 0.008 and 0.003 (2×) and 0.001 and 0.004 | 888 ± 107 | 234 ± 43 | 3014 ± 671 | 1967 ± 276 | 906 ± 121 | 246 ± 38 | 3219 ± 546 | 3H Thymidine up-take into CTLL2 cells, mean ± SE (4 wells) [3, 20]: 1831 ± 259; 3H Thymidine up-take into CTLL2 cells, mean ± SE (4 wells) [3, 21]: 942 ± 116; 3H Thymidine up-take into CTLL2 cells, mean ± SE (4 wells) [3, 22]: 251 ± 44; 3H Thymidine up-take into CTLL2 cells, mean ± SE (4 wells) [3, 23]: 3344 ± 497; 3H Thymidine up-take into CTLL2 cells, mean ± SE (4 wells) [3, 24]: 1956 ± 285 |
| PHFDSLLYPCELLGC (PHFDSLLYPCQLLGC) [GD3R2, tested as phage clone, MAP form or peptide] | 0.052 | 0.071 | 0.079 | 0.132 | 0.042 and 0.114 and 0.087 and 0.155 and 0.076 and 0.084 and 0.316 and 0.062 | 0.031 and 0.068 and 0.05 and 0.078 and 0.055 and 0.044 and 0.252 and 0.035 | 0.053 and 0.028 (2×) and 0.045 and 0.014 and 0.034 and 0.179 and 0.022 | 0.183 and 0.135 and 0.142 and 0.131 and 0.115 and 0.072 and 0.069 and 0.34 | 0.078 and 0.049 and 0.071 and 0.034 and 0.091 and 0.039 and 0.047 and 0.241 | 0.039 and 0.035 and 0.025 and 0.016 (2×) and 0.033 and 0.034 and 0.13 | 0.08 and 0.053 and 0.057 and 0.184 and 0.09 and 0.05 and 0.098 and 0.113 | 0.075 and 0.053 and 0.084 and 0.161 and 0.089 and 0.059 and 0.086 and 0.099 | 0.023 (2×) and 0.014 and 0.008 and 0.053 and 0.028 and 0.012 and 0.036 | 792 ± 88 | 185 ± 31 | 2957 ± 326 | 1784 ± 164 | 856 ± 107 | 192 ± 40 | 3057 ± 321 | 3H Thymidine up-take into CTLL2 cells, mean ± SE (4 wells) [3, 20]: 1719 ± 184; 3H Thymidine up-take into CTLL2 cells, mean ± SE (4 wells) [3, 21]: 931 ± 124; 3H Thymidine up-take into CTLL2 cells, mean ± SE (4 wells) [3, 22]: 203 ± 36; 3H Thymidine up-take into CTLL2 cells, mean ± SE (4 wells) [3, 23]: 3022 ± 316; 3H Thymidine up-take into CTLL2 cells, mean ± SE (4 wells) [3, 24]: 1717 ± 198 |
